The subject of test [1] is Staphylococcus aureus X400. The test is described as follows: standard agar-dilution assay, MIC. It is filed as cell-based. The conditions noted are these: Staphylococcus aureus X400, methicillin resistant strain. The protocol: (§1) The MIC's in Table III were determined by standard agar-dilutionassays. The MIC's in Table IV were obtained using a conventional broth-dilution microtiter test.
^c Methicillinresistant-strain

Test [2] has as its system Staphylococcus aureus V41. The experiment in a line: standard agar-dilution assay, MIC. In kind it is cell-based. The conditions noted are these: Staphylococcus aureus V41, penicillin resistant strain. How it is done: as §1
^b Penicillinresistant strain

The subject of test [3] is Streptococcus pyogenes C203. The test is described as follows: experimental bacterial infection in mice, ED50. In kind it is in vivo. The settings on record: doses given 1 and 5 hours postinfection, read-out: ED50 (effective dose to protect 50% of the test animals). The protocol: The ester derivatives of this invention have shown in vivo antimicrobial activity against experimental bacterial infections caused by gram-positivebacteria. When two doses of test compound were administered to mice with experimental infections, the activity observed was measured as an ED50 value [effective dose in mg/kg to protect 50% of the test animals: see Warren Wick, et al., J. Bacteriol. 81, 233-235 (1961)].
^a mg/kg × 2; doses given 1 and 5 hours postinfection

Test [4] relates to Pasteurella multocida 60A. The test is described as follows: conventional broth-dilution microtiter test, MIC. It is filed as cell-based. The conditions noted are these: avian isolate. The protocol:
as §1

Test [5] deals with Pasteurella multocida 17E. The experiment in a line: conventional broth-dilution microtiter test, MIC. It is filed as cell-based. The settings on record: bovine isolate. The protocol:
as §1

Another test has as its system Staphylococcus aureus. The experiment in a line: conventional broth-dilution microtiter test, MIC. In kind it is cell-based. How it is done: as §1
A further test deals with Mycoplasma gallisepticum. The experiment in a line: conventional broth-dilution microtiter test, MIC. In kind it is cell-based. The protocol:
as §1

The next test relates to Mycoplasma hyorhinis. The experiment in a line: conventional broth-dilution microtiter test, MIC. In kind it is cell-based. How it is done: as §1
Another test has as its system Streptococcus sp. 80. The test is described as follows: conventional broth-dilution microtiter test, MIC. It is filed as cell-based. The protocol:
as §1

In a further test the test system is Mycoplasma synoviae. The test is described as follows: conventional broth-dilution microtiter test, MIC. In kind it is cell-based. How it is done:
as §1

For test [6], the system named is Streptococcus pneumoniae Park I. The test is described as follows: standard agar-dilution assay, MIC. It is filed as cell-based. How it is done: as §1
A further test deals with Streptococcus Group 9960. The test is described as follows: standard agar-dilution assay, MIC. It is filed as cell-based. The protocol:
as §1

Test [7] deals with Streptococcus pyogenes C203. The experiment in a line: standard agar-dilution assay, MIC. In kind it is cell-based. The protocol: as §1
Test [8] has as its system Staphylococcus aureus X1.1. The test is described as follows: standard agar-dilution assay, MIC. It is filed as cell-based. The protocol:
as §1

Test [9] concerns Staphylococcus epidermidis EPI2. The test is described as follows: standard agar-dilution assay, MIC. It is filed as cell-based. How it is done: as §1
For test [10], the system named is Staphylococcus aureus S13E. The test is described as follows: standard agar-dilution assay, MIC. It is filed as cell-based. How it is done:
as §1

Test [11] concerns Staphylococcus epidermidis EPI1. The test is described as follows: standard agar-dilution assay, MIC. In kind it is cell-based. How it is done:
as §1

The subject of test [12] is Streptococcus Group D X66. The experiment in a line: standard agar-dilution assay, MIC. It is filed as cell-based. How it is done: as §1
Test [13] deals with Haemophilus influenzae R252. The test is described as follows: standard agar-dilution assay, MIC. It is filed as cell-based. The settings on record: Haemophilus influenzae R252, ampicillin resistant strain. How it is done:
as §1
^e Ampicillinresistant strain

The subject of test [14] is Haemophilus influenzae Holt. The test is described as follows: standard agar-dilution assay, MIC. It is filed as cell-based. The settings on record: ampicillin sensitive strain. The protocol:
as §1
^d Ampicillinsensitive strain

Where two headings read alike, the source gives them in different places.

`CCC(=O)OCC1C=C(C)C=CC(=O)C(C)CC(CC=O)C(OC2OC(C)C(OC3CC(C)(O)C(OC(=O)CC)C(C)O3)C(N(C)C)C2O)C(C)C(O)CC(=O)OC1CC` (stereo not shown) [Compound 4, 23,4"-Di-O-Propionyl-DMT]: the “MIC (minimal inhibitory concentration)” value in test [1] is 1; in test [2], 1; in [4], 25; in test [5], 12.5; in the test with Staphylococcus aureus it was 0.78; in the test on Mycoplasma gallisepticum it was 0.195. Also, the “MIC (minimal inhibitory concentration)” value against Mycoplasma hyorhinis came to 0.78; with Streptococcus sp. 80, 1.56; with Mycoplasma synoviae it was 0.39; in test [6] it was 0.06; in the test with Streptococcus Group 9960 it was 0.5; in [7], 0.25. Also, the “MIC (minimal inhibitory concentration)” value in test [8] was determined as 0.5; in [9] it was 1; in test [10], 0.5; in [11] it was 0.5; in [12], 1. Further, the ED50 (commonly the dose that gives a 50% effect, or the effect in half of the subjects) is greater than 150 mg/kg in test [3] (C203, mice, oral) and 12 mg/kg in test [3] (C203, sc, mice, subcutaneous).

`CCC(=O)OCC1C=C(C)C=CC(=O)C(C)CC(CC=O)C(OC2OC(C)C(OC3CC(C)(O)C(OC(=O)CC)C(C)O3)C(N(C)C)C2O)C(C)C(OC(=O)CC)CC(=O)OC1CC` (stereo not shown) [Compound 10, 3,23,4"-Tri-O-Propionyl-DMT]: the “MIC (minimal inhibitory concentration)” value in test [1] was 1; in [2], 1; in test [4], 50; in test [5], 25; against Staphylococcus aureus it was 1.56; against Mycoplasma gallisepticum, no more than 0.05. Moreover, the “MIC (minimal inhibitory concentration)” value came to 0.78 in the test with Mycoplasma hyorhinis; 1.56 with Streptococcus sp. 80; 0.39 with Mycoplasma synoviae; 0.125 in test [6]; 1 against Streptococcus Group 9960; 0.25 in [7]. The “MIC (minimal inhibitory concentration)” value came out at 0.5 in test [8]; 2 in test [9]; 0.5 in test [10]; 1 in test [11]; 1 in test [12]. In addition, the ED50 in test [3] (C203, mice, oral) is greater than 150 mg/kg; in test [3] (C203, sc, mice, subcutaneous) it was 13 mg/kg.

`CCC1OC(=O)CC(O)C(C)C(OC2OC(C)C(OC3CC(C)(O)C(OC(=O)C(Cl)(Cl)Cl)C(C)O3)C(N(C)C)C2OC(C)=O)C(CC=O)CC(C)C(=O)C=CC(C)=CC1COC(=O)C(Cl)(Cl)Cl` (stereo not shown) [Compound 11, 2'-O-acetyl-23,4"-di-O-trichloroacetyl-DMT]: the “MIC (minimal inhibitory concentration)” value came to 16 in test [13]; 8 in test [1]; 8 in [2]; 32 in [14]; 0.25 in [6]; 4 against Streptococcus Group 9960. In addition, the “MIC (minimal inhibitory concentration)” value was 2 in test [7]; 4 in [8]; 4 in test [9]; 4 in [10]; 2 in test [11]; 4 in test [12].

With `CCC1OC(=O)CC(OC(=O)C(Cl)(Cl)Cl)C(C)C(OC2OC(C)C(OC3CC(C)(O)C(O)C(C)O3)C(N(C)C)C2OC(C)=O)C(CC=O)CC(C)C(=O)C=CC(C)=CC1COC(=O)C(Cl)(Cl)Cl` (stereo not shown) [Compound 12, 2'-O-acetyl-3,23-di-O-trichloroacetyl-DMT], the “MIC (minimal inhibitory concentration)” value worked out at 16 in test [13]; 2 in test [1]; 2 in test [2]; 32 in test [14]; 0.125 in test [6]; 2 against Streptococcus Group 9960. In addition, the “MIC (minimal inhibitory concentration)” value in test [7] is on record as 0.5; in [8], 1; in test [9], 2; in test [10], 1; in [11], 1; in [12] it was 2.

As for `CCC1OC(=O)CC(OC(=O)C(Cl)(Cl)Cl)C(C)C(OC2OC(C)C(OC3CC(C)(O)C(OC(=O)C(Cl)(Cl)Cl)C(C)O3)C(N(C)C)C2OC(C)=O)C(CC=O)CC(C)C(=O)C=CC(C)=CC1COC(=O)C(Cl)(Cl)Cl` (stereo not shown) [Compound 13, 2'-O-acetyl-3,23,4"-tri-O-trichloroacetyl-DMT], the “MIC (minimal inhibitory concentration)” value came out at 128 in test [13]; 16 in [1]; 16 in test [2]; 128 in test [14]; 2 in test [6]; 16 in the test on Streptococcus Group 9960. The “MIC (minimal inhibitory concentration)” value in test [7] came to 8; in test [8] it was 8; in [9], 16; in test [10], 8; in test [11], 8; in [12], 16.

`CCC(=O)OC1C(C)OC(OC2C(C)OC(OC3C(CC=O)CC(C)C(=O)C=CC(C)=CC(C)C(CC)OC(=O)CC(O)C3C)C(OC(C)=O)C2N(C)C)CC1(C)O` (stereo not shown) [Compound 22, 2'-O-Acetyl-4"-O-Propionyl-DMOT]: the “MIC (minimal inhibitory concentration)” value in [1] is reported as 0.5; in [2] it was 0.5; in [4], 25; in test [5] it was 25; in the test on Staphylococcus aureus it was 3.12; against Mycoplasma gallisepticum it was 0.195. The “MIC (minimal inhibitory concentration)” value in the test with Mycoplasma hyorhinis is given as 1.56; in the test with Streptococcus sp. 80 it was 1.56; against Mycoplasma synoviae it was 0.78; in [6], 0.125; against Streptococcus Group 9960, 0.5; in [7] it was 0.25. Further, the “MIC (minimal inhibitory concentration)” value in [8] stood at 0.25; in test [9] it was 1; in test [10], 0.5; in test [11], 0.5; in [12], 0.5. The ED50 in [3] (C203, mice, oral) was 91 mg/kg; in test [3] (C203, sc, mice, subcutaneous), greater than 30 mg/kg.

As to `CCC(=O)OC1CC(=O)OC(CC)C(C)C=C(C)C=CC(=O)C(C)CC(CC=O)C(OC2OC(C)C(OC3CC(C)(O)C(OC(=O)CC)C(C)O3)C(N(C)C)C2OC(C)=O)C1C` (stereo not shown) [Compound 23, 2'-O-Acetyl-3,4"-Di-O-Propionyl-DMOT], the “MIC (minimal inhibitory concentration)” value in test [1] is on record as 1; in [2], 1; in test [4], greater than 50; in test [5], 50; against Staphylococcus aureus, 1.56; against Mycoplasma gallisepticum, 0.39. Moreover, the “MIC (minimal inhibitory concentration)” value in the test on Mycoplasma hyorhinis was 1.56; with Streptococcus sp. 80, 1.56; in the test with Mycoplasma synoviae, 3.12; in test [6] it was 0.06; in the test with Streptococcus Group 9960 it was 1; in [7], 0.5. Further, the “MIC (minimal inhibitory concentration)” value is 0.5 in [8]; 1 in [9]; 0.5 in test [10]; 0.5 in [11]; 1 in test [12]. Further, the ED50 in test [3] (C203, mice, oral) is greater than 100 mg/kg; in test [3] (C203, sc, mice, subcutaneous), greater than 30 mg/kg.

For the origin of these results see patent publication US4436733A, “4"- And 3-ester derivatives of DMT and DMOT” (Eli Lilly and Company, priority 1982, dated 1984).
